Reference: ChEMBL document CHEMBL4699404, “Arylsulfonyl histamine derivatives as powerful and selective alpha-glucosidase inhibitors” (RSC Med Chem, 2020)
Calls of active or inactive are those of the source. The calls are words filed in the database; no cut-off is given here.

Legend:
[1] = Inhibition of almonds beta-glucosidase using p-nitrophenyl-beta-o-D-glucopyranoside as substrate measured for 10 mins; design: species or system Prunus dulcis
[2] = tested on: Saccharomyces cerevisiae; assay: Inhibition of Saccharomyces cerevisiae alpha-glucosidase using p-nitrophenyl-alpha-o-D-glucopyranoside as substrate at 100 uM measured for 10 mins by microplate assay relative to control
[3] = Inhibition of Kluyveromyces lactis beta-galactosidase using o-nitrophenyl-beta-o-D-galactopyranoside as substrate measured for 10 mins
[4] = target: Xanthine dehydrogenase/oxidase (Bos taurus, UniProt P80457); assay: Inhibition of bovine milk xanthine oxidase assessed as reduction in uric acid formation at 3 uM using xanthine as substrate measured for 20 mins by microplate assay; conditions: cattle
[5] = target: Mushroom tyrosinase (Agaricus bisporus) (UniProt O42713+Q00024+C7FF04+C7FF05); assay: Inhibition of mushroom tyrosinase assessed as reduction in dopachrome formation at 40 uM using L-tyrosine as substrate measured for 30 mins by microplate assay
[6] = target: Acetylcholinesterase (Electrophorus electricus) (UniProt O42275); assay: Inhibition of electric eel AChE using acetylthiocholine iodide as substrate at 1.5 uM measured for 15 mins by Ellman's method relative to control
[7] = tested on: Kluyveromyces lactis; assay: Inhibition of Kluyveromyces lactis beta-galactosidase using o-nitrophenyl-beta-o-D-galactopyranoside as substrate at 100 to 2500 uM measured for 10 mins; conditions: dose microM 100-2500, time 10.0 min
[8] = tested on: Prunus dulcis; assay: Inhibition of almonds beta-glucosidase using p-nitrophenyl-beta-o-D-glucopyranoside as substrate at 65 uM measured for 10 mins
[9] = Inhibition of porcine pancreatic alpha-amylase assessed as reduction in conversion of starch to glucose using starch as substrate at 200 uM incubated for 15 mins by starch-iodine method; design: species or system Sus scrofa; conditions: pig, 0.25 h
[10] = tested on: Saccharomyces cerevisiae; assay: Inhibition of Saccharomyces cerevisiae alpha-glucosidase using p-nitrophenyl-alpha-o-D-glucopyranoside as substrate at 122 uM measured for 10 mins by microplate assay relative to control
[11] = tested on: Saccharomyces cerevisiae; assay: Reversible inhibition of Saccharomyces cerevisiae alpha-glucosidase assessed as recovery of enzyme activity preincubated with enzyme for 30 mins followed by 100-fold dilution and challenge with substrate by jump dilution experiment based microplate assay; design: scale not given: the % may be the effect or the level left
[12] = Toxicity against C57BL/6 mouse assessed as changes in water consumption at 22.5 mg/kg, po administered via gavage measured for 24 hrs; assay type: organism-based; conditions: in vivo
[13] = Toxicity against C57BL/6 mouse assessed as changes in food consumption at 22.5 mg/kg, po administered via gavage measured for 24 hrs; assay type: organism-based; conditions: in vivo
[14] = Toxicity against C57BL/6 mouse assessed as locomotory changes at 22.5 mg/kg, po administered via gavage; assay type: organism-based; conditions: in vivo
[15] = Toxicity against C57BL/6 mouse assessed as general body position changes at 22.5 mg/kg, po administered via gavage; assay type: organism-based; conditions: in vivo
[16] = Toxicity against C57BL/6 mouse assessed as behavioural changes at 22.5 mg/kg, po administered via gavage; assay type: organism-based; conditions: in vivo
[17] = tested on: Mus musculus; assay: Hypoglycemic activity in C57BL/6 mouse assessed as reduction in postprandial blood glucose level at 22.5 mg/kg, po administered via gavage measured after 15 to 90 mins by glucometric analysis; assay type: functional, organism-based; conditions: time min 15-90
[18] = tested on: Saccharomyces cerevisiae; assay: Potency index, ratio of acarbose Ki to test compound Ki for competitive inhibition of Saccharomyces cerevisiae alpha-glucosidase using varying levels of p-nitrophenyl-alpha-D-glucopyranoside as substrate by Lineweaver-Burk plot analysis
[19] = tested on: Mus musculus; assay: Hypoglycemic activity in C57BL/6 mouse assessed as reduction in sucrose-induced postprandial blood glucose level at 22.5 mg/kg, po administered via gavage and measured after 15 to 90 mins by oral sucrose loading test; assay type: functional, organism-based; conditions: time min 15-90

Xanthine dehydrogenase/oxidase, sequence (P80457 whole entry): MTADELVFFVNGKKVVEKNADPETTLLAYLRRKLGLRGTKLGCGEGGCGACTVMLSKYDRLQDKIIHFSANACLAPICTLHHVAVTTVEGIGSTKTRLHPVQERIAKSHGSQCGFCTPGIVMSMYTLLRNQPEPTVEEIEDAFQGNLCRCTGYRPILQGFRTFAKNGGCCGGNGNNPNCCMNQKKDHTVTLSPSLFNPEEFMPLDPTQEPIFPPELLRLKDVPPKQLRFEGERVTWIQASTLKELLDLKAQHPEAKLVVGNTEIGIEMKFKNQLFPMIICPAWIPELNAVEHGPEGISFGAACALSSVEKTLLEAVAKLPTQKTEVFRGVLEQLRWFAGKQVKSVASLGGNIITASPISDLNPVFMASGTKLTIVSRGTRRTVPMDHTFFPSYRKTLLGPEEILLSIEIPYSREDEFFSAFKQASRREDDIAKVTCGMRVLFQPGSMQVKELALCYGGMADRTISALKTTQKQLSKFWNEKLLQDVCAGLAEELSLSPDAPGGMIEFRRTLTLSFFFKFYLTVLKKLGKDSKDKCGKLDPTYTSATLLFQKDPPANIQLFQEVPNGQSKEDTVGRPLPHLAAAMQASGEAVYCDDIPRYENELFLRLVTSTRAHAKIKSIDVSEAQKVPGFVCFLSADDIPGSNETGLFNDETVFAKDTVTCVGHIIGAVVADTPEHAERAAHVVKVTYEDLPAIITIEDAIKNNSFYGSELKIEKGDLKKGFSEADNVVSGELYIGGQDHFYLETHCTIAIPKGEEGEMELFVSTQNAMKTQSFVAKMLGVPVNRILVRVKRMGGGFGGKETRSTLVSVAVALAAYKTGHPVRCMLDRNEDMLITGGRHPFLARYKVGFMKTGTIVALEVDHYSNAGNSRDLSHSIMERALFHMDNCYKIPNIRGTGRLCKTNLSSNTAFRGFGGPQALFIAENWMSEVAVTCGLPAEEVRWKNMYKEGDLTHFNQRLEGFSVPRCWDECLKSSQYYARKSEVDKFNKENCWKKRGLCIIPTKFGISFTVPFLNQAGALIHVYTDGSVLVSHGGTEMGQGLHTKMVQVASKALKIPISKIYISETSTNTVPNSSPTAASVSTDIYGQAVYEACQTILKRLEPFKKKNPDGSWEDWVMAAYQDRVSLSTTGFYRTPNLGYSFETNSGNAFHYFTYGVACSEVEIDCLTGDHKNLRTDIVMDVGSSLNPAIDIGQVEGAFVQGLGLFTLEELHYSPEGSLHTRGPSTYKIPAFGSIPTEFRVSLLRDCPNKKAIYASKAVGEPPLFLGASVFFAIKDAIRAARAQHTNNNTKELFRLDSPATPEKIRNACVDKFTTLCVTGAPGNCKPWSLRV
Acetylcholinesterase (Electrophorus electricus), sequence (O42275 24-633 limits assumed): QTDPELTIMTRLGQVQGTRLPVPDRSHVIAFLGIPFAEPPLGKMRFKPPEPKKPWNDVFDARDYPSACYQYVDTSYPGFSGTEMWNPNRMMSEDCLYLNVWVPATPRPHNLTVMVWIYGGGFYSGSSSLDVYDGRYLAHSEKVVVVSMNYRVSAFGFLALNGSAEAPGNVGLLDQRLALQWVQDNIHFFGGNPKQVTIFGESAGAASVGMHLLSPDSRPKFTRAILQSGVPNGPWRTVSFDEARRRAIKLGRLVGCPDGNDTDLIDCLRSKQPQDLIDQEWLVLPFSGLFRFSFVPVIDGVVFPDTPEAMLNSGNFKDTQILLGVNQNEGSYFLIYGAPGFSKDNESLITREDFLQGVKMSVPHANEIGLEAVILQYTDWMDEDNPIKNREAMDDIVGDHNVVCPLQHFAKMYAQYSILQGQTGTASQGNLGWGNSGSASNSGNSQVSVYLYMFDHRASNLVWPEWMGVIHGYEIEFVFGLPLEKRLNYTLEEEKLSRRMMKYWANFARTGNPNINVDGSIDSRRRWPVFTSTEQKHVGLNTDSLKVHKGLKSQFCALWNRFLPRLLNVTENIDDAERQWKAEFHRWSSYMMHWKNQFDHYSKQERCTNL

With `OC[C@H]1NC[C@H](O)[C@@H](O)[C@@H]1O` [DUVOGLUSTAT] the IC50 [1] was 65.2 µM.

Compound `O=S(=O)(NCCc1cn(S(=O)(=O)c2ccc(F)cc2)cn1)c1ccc(F)cc1` has an inhibition [2] of over 50%.

`O=S(=O)(NCCc1c[nH]cn1)c1cc(F)c(F)c(F)c1` gave an inhibition [2] of under 50%.

In the case of `COc1ccc(S(=O)(=O)NCCc2cn(S(=O)(=O)c3ccc(OC)c(F)c3)cn2)cc1F`, the inhibition [2] is reported as over 50%.

Work on `O=S(=O)(NCCc1c[nH]cn1)c1ccccc1` yielded an inhibition [2] of under 50%.

With `O=S(=O)(NCCc1c[nH]cn1)c1ccc(F)cc1` the inhibition [2] was under 50%.

`O=S(=O)(NCCc1c[nH]cn1)c1ccc(F)cc1C(F)(F)F` gave an inhibition [2] of under 50%.

Work on `OC[C@H]1NC[C@H](O)[C@@H](O)[C@H]1O` yielded an IC50 [3] of 90 µM.

With `O=S(=O)(NCCc1c[nH]cn1)c1ccc(C(F)(F)F)cc1` the inhibition [2] was under 50%.

For `COc1ccc(S(=O)(=O)NCCc2c[nH]cn2)cc1F`, the inhibition [2] was under 50%.

`Cc1ccc(S(=O)(=O)NCCc2cn(S(=O)(=O)c3ccc(C)cc3)cn2)cc1` showed an inhibition [2] of over 50%.

Work on `O=S(=O)(NCCc1cn(S(=O)(=O)c2cc(F)c(F)c(F)c2)cn1)c1cc(F)c(F)c(F)c1` yielded an inhibition [2] of over 50%.

Compound `O=S(=O)(NCCc1cn(S(=O)(=O)c2ccc(F)cc2C(F)(F)F)cn1)c1ccc(F)cc1C(F)(F)F` has an inhibition [2] of over 50%.

Work on `O=S(=O)(NCCc1cn(S(=O)(=O)c2ccc(F)cc2Cl)cn1)c1ccc(F)cc1Cl` yielded an inhibition [2] of over 50%.

`O=S(=O)(NCCc1cn(S(=O)(=O)c2c(F)c(F)c(F)c(F)c2F)cn1)c1c(F)c(F)c(F)c(F)c1F` gave an inhibition [2] of over 50%.

With `Cc1ccc(F)c(S(=O)(=O)NCCc2cn(S(=O)(=O)c3cc(C)ccc3F)cn2)c1` the inhibition [2] was over 50%, the “inhibition (INH)” value [4] was “Not Active” and the inhibition [5] was “inactive”. For the same compound, the inhibition [6] was 7.14%, the inhibition [7] was “inactive” and the inhibition [8] was “inactive”. The “inhibition (INH)” value [9] was “Not Active” and the inhibition [10] was 72.2%.

Work on `O=S(=O)(NCCc1cn(S(=O)(=O)c2ccccc2)cn1)c1ccccc1` yielded an inhibition [2] of over 50%.

Work on `Cc1ccc(S(=O)(=O)NCCc2c[nH]cn2)cc1` yielded an inhibition [2] of under 50%.

Work on `Cc1ccc(F)c(S(=O)(=O)NCCc2c[nH]cn2)c1` yielded an inhibition [2] of under 50%.

In the case of `O=S(=O)(NCCc1cn(S(=O)(=O)c2ccc(C(F)(F)F)cc2)cn1)c1ccc(C(F)(F)F)cc1`, the inhibition [2] is reported as over 50%, the “inhibition (INH)” value [4] is reported as “Not Active” and the inhibition [5] is reported as “inactive”. The inhibition [6] was 2.31%, the inhibition [7] was “inactive” and the inhibition [8] was “inactive”. The “inhibition (INH)” value [9] was “Not Active”, the inhibition [10] was 79.9% and the Activity [11] was 97%. For the same compound, the Activity [12] was “Non-Toxic”, the Activity [13] was “Non-Toxic” and the Activity [14] was “Non-Toxic”. For the same compound, the Activity [15] was “Non-Toxic”, the Activity [16] was “Non-Toxic” and the Activity [17] was “Active”. The Ratio Ki [18] was 7 and the Activity [19] was “Active”.
